Test results published in article PMC10111413 (ACS Infectious Diseases, 2023).

Tests used:
Type in all cases: cell-based
sheep red blood cells = experiment: Hemolytic assay; details: 128 μg/mL, 1 h at 37 °C, sheep red blood cells in PBS with 0.002% Tween20, read-out 415 nm, relative to 0.1% Triton X-100, triplicate
Protocol: Figure S2. Hemolytic activity of compounds 3a-5 at 128 µg/mL and 1 h incubation against sheep red […]
under the same conditions.
Experiments were performed in triplicate and Triton X-100 used as a positive control. Red blood cells from defibrinated sheep blood obtained from Thermo Fisher were centrifuged (400 g for 15 min at 4°C) and washed with Phosphate-Buffered Saline (PBS) containing 0.002% Tween20 (buffer) five times. Then, the red blood cells were normalized to obtain a positive control read-out between 2.5 and 3.0 at 415 nm to stay within the linear range with the maximum sensitivity. A serial dilution of the compounds (128 – 1 µg/mL, 75 µL) was prepared in a 96-well polypropylene plate. The outer border of the plate was filled with 75 µL buffer. Each plate contained a positive control (0.1% Triton-X final concentration, 75 µL) and a negative control (buffer, 75 µL) in triplicate. The normalized blood cells (75 µL) were added and the plates were incubated at 37 °C for 1 h while shaking at 500 rpm. A flat - bottom polystyrene plate with 100 µL buffer in each well was prepared. […] The values obtained from a read-out at 415 nm were corrected for background (negative control) and transformed to a percentage relative to the positive […]

P. aeruginosa PAO1 = details: CLSI microbroth dilution, Mueller Hinton broth, 18 h at 37 °C, visual read-out, three technical replicates
Protocol: (§1) The antibacterial activities of relacidine A (3a) and B (4a), along with diastereomers 3b and 4b–d and relacidamide (5), were assessed using a standard microbroth dilution assay to establish minimum inhibitory concentration (MIC) values against a panel of Gram-negative bacteria (Table 1). The MIC values measured for synthetic relacidine A (3a) and B (4a) agree well with those previously published.[9] […] Relacidine A (3a) and B (4a), as well as relacidamide (5), were further tested against a panel of colistin-resistant A. baumannii clinical isolates, which confirmed their ability to prevent the growth of colistin-resistant isolates (Supplemental Table S2). […] Also of interest was the finding that while relacidine B (4a) induced <1% hemolysis, a substitution of either the L-Ala or L-Ser to D-Ala or D-Ser increased hemolytic activity to 8–12%. […] The greater hydrolytic stability of relacidine B would appear to be attributable to the increased steric bulk of the Ala side chain next to the ester linkage (compared with the methylene of Gly in relacidine A), which may hinder the nucleophilic attack of water at the ester carbonyl.
(§2) Colistin sulfate was purchased from Activate Scientific. Kanamycin monosulfate was purchased from MP Biomedicals. E. coli ATCC 25922, S. aureus USA300 (ATCC BAA1717), and K. pneumoniae ATCC 13883 belong to the American Type Culture Collection (ATCC). P. aeruginosa PAO1 was kindly provided by L.H.C. Quarles Van Ufford of Utrecht University, Utrecht, The Netherlands. E. coli ATCC 25922 MCR-1 was transfected in-house using the pGDP2-MCR1 plasmid kindly provided by Yong-Xin Li of The University of Hong Kong, Hong Kong, China. Sheep blood agar plates (ref. PB5039A) were purchased from Thermo Scientific. Tryptic soy broth (ref. 02-200-500) was purchased from Scharlab. Mueller-Hinton broth (ref. X927.1) was purchased from Carl Roth. Polypropylene 96-wells plates (ref. 3879) were purchased from Corning.
(§3) MICs were determined according to Clinical and Standards Laboratory Institute (CLSI) guidelines. Blood agar plates were inoculated with glycerol stocks of E. coli ATCC 25922, K. pneumoniae ATCC 13883, P. aeruginosa PAO1, and S. aureus USA300. The inoculated agar plates were then incubated for 16 h at 37 °C. Individually grown colonies were subsequently used to inoculate 5 mL aliquots of tryptic soy broth (TSB) that were then incubated at 37 °C with shaking at 220 rpm. E. coli 25922 MCR-1 glycerol stock was used to inoculate 5 mL of TSB supplemented with kanamycin that was then incubated for 16 h at 37 °C with shaking at 220 rpm. The next day, the culture was diluted 100-fold in TSB supplemented with kanamycin and incubated at 37 °C with shaking at 220 rpm. In parallel, the lipopeptide antibiotic DMSO stocks to be assessed were serially diluted with Mueller Hinton broth (MHB) in polypropylene 96-well plates (50 μL in each well). Colistin sulfate stocks were dissolved in water before being diluted with MHB. Aliquots of the inoculated TSB were incubated until an OD600 of around 0.5 was reached. The bacterial suspensions were then diluted with MHB (2 × 10^5 cfu mL^–1) and added to the microplates containing the test compounds (50 μL to each well). The well plates were sealed with an adhesive membrane, and after 18 h of incubation at 37 °C with shaking at 600 rpm, the wells were visually inspected for bacterial growth. MIC values reported are based on three technical replicates and defined as the lowest concentration of the compound that prevented visible growth of bacteria.

E. coli ATCC 25922 mcr-1 = details: CLSI microbroth dilution, Mueller Hinton broth, 18 h at 37 °C, visual read-out, three technical replicates; mcr-1 colistin resistance plasmid
Protocol: as §1, §2, §3

K. pneumoniae ATCC 13883 = details: CLSI microbroth dilution, Mueller Hinton broth, 18 h at 37 °C, visual read-out, three technical replicates
Protocol: as §1, §2, §3

E. coli ATCC 25922 = details: CLSI microbroth dilution, Mueller Hinton broth, 18 h at 37 °C, visual read-out, three technical replicates
Protocol: as §1, §2, §3

S. aureus USA300 = details: CLSI microbroth dilution, Mueller Hinton broth, 18 h at 37 °C, visual read-out, three technical replicates
Protocol: as §1, §2, §3

## colistin [reference compound]
Sheep red blood cells
  hemolysis: < 0.1%
P. aeruginosa PAO1
  MIC P. aeruginosa PAO1: 1 µg/mL
E. coli ATCC 25922 mcr-1
  MIC E. coli ATCC 25922 mcr-1: 4 µg/mL
K. pneumoniae ATCC 13883
  MIC K. pneumoniae ATCC 13883: 0.25 to 0.5 µg/mL
E. coli ATCC 25922
  MIC E. coli ATCC 25922: 1 µg/mL
S. aureus USA300
  MIC S. aureus USA300: >32 µg/mL
